Measured values from ChEMBL document CHEMBL1201861, “Genomics of Drug Sensitity in Cancer screening data, Wellcome Trust Sanger Institute”.

What was measured:
Assay in all cases: cells
HH = type: functional, cell-based, Homo sapiens; details: Homo sapiens, HH
Description: SANGER: Inhibition of human HH cell growth in a cell viability assay.

A101D = type: functional, cell-based, Homo sapiens; details: Homo sapiens, A101D;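 further: growth inhibition of the cell line, measured with a viability assay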
Description: SANGER: Inhibition of human A101D cell growth in a cell viability assay.

NCI-H1355 = type: functional, cell-based, Homo sapiens; details: Homo sapiens, NCI-H1355;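 further: growth inhibition of human NCI-H1355 cells, read out by a cell viability assay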
Description: SANGER: Inhibition of human NCI-H1355 cell growth in a cell viability assay.

TGBC24TKB = type: functional, cell-based; details: Homo sapiens;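 further: growth inhibition of human TGBC24TKB cells, read out with a cell viability assay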
Description: SANGER: Inhibition of human TGBC24TKB cell growth in a cell viability assay.

ES1 = type: functional, cell-based, Homo sapiens; details: Homo sapiens, ES1;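 further: growth inhibition of ES1 cells, read out with a cell viability assay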
Description: SANGER: Inhibition of human ES1 cell growth in a cell viability assay.

DMS-114 = type: functional, cell-based, Homo sapiens; details: Homo sapiens, DMS-114
MZ1-PC = type: functional, cell-based, Homo sapiens; details: Homo sapiens, MZ1-PC;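 further: cell viability assay measuring growth inhibition of human MZ1-PC cells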
Description: SANGER: Inhibition of human MZ1-PC cell growth in a cell viability assay.

8-MG-BA = type: functional, cell-based, Homo sapiens; details: Homo sapiens, 8-MG-BA;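 further: growth inhibition of 8-MG-BA cells, read out with a cell viability assay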
Description: SANGER: Inhibition of human 8-MG-BA cell growth in a cell viability assay.

VA-ES-BJ = type: functional, cell-based, Homo sapiens; details: Homo sapiens, VA-ES-BJ;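 further: growth inhibition of the VA-ES-BJ cell line, read out by a cell viability assay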
Description: SANGER: Inhibition of human VA-ES-BJ cell growth in a cell viability assay.

HCE-4 = type: functional, cell-based; details: Homo sapiens;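 further: cell viability assay measuring inhibition of growth in the human HCE-4 cell line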
Description: SANGER: Inhibition of human HCE-4 cell growth in a cell viability assay.

TE-12 = type: functional, cell-based, Homo sapiens; details: Homo sapiens, TE-12;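 further: growth inhibition of TE-12 cells, read out by a cell viability assay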
Description: SANGER: Inhibition of human TE-12 cell growth in a cell viability assay.

KARPAS-299 = type: functional, cell-based, Homo sapiens; details: Homo sapiens, KARPAS-299
Description: SANGER: Inhibition of human KARPAS-299 cell growth in a cell viability assay.

SCC-15 = type: functional, cell-based, Homo sapiens; details: Homo sapiens, SCC-15;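 further: growth inhibition of SCC-15 cells, read out with a cell viability assay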
Description: SANGER: Inhibition of human SCC-15 cell growth in a cell viability assay.

LOX IMVI = type: functional, cell-based, Homo sapiens; details: Homo sapiens, LOX IMVI
Description: SANGER: Inhibition of human LOXIMVI cell growth in a cell viability assay.

ES8 = type: functional, cell-based, Homo sapiens; details: Homo sapiens, ES8;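 further: growth inhibition of human ES8 cells, read out with a cell viability assay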
Description: SANGER: Inhibition of human ES8 cell growth in a cell viability assay.

GOTO = type: functional, cell-based, Homo sapiens; details: Homo sapiens, GOTO;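 further: growth inhibition of GOTO cells, read out by a cell viability assay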
Description: SANGER: Inhibition of human GOTO cell growth in a cell viability assay.

Ramos-2G6-4C10 = type: functional, cell-based, Homo sapiens; details: Homo sapiens, Ramos-2G6-4C10;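 further: growth inhibition of the cell line, measured by a cell viability read-out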
Description: SANGER: Inhibition of human Ramos-2G6-4C10 cell growth in a cell viability assay.

COLO-800 = type: functional, cell-based, Homo sapiens; details: Homo sapiens, COLO-800;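 further: growth inhibition of COLO-800 cells, read out with a cell viability assay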
Description: SANGER: Inhibition of human COLO-800 cell growth in a cell viability assay.

GB-1 = type: functional, cell-based, Homo sapiens; details: Homo sapiens, GB-1;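 further: growth of GB-1 cells judged by a viability assay, IC50 marks the concentration inhibiting growth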
Description: SANGER: Inhibition of human GB-1 cell growth in a cell viability assay.

IA-LM = type: functional, cell-based; details: Homo sapiens;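 further: cell viability assay measuring growth inhibition of human IA-LM cells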
Description: SANGER: Inhibition of human IA-LM cell growth in a cell viability assay.

A498 = type: functional, cell-based, Homo sapiens; details: Homo sapiens, A498;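 further: growth inhibition of human A498 cells, read out with a cell viability assay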
Description: SANGER: Inhibition of human A498 cell growth in a cell viability assay.

Mo = type: functional, cell-based, Homo sapiens; details: Homo sapiens, Mo
Description: SANGER: Inhibition of human Mo-T cell growth in a cell viability assay.

MLMA = type: functional, cell-based, Homo sapiens; details: Homo sapiens, MLMA;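 further: growth inhibition of MLMA cells (human), determined through a cell viability readout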
Description: SANGER: Inhibition of human MLMA cell growth in a cell viability assay.

MFM-223 = type: functional, cell-based, Homo sapiens; details: Homo sapiens, MFM-223
Description: SANGER: Inhibition of human MFM-223 cell growth in a cell viability assay.

HOP-62 = type: functional, cell-based, Homo sapiens; details: Homo sapiens, HOP-62;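 further: cell growth inhibition determined with a viability assay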
Description: SANGER: Inhibition of human HOP-62 cell growth in a cell viability assay.

GI-1 = type: functional, cell-based, Homo sapiens; details: Homo sapiens, GI-1;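 further: growth inhibition of human GI-1 cells, measured with a cell viability readout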
Description: SANGER: Inhibition of human GI-1 cell growth in a cell viability assay.

ES6 = type: functional, cell-based; details: Homo sapiens;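 further: growth inhibition of human ES6 cells, read out with a cell viability assay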
Description: SANGER: Inhibition of human ES6 cell growth in a cell viability assay.

C2BBe1 = type: functional, cell-based, Homo sapiens; details: Homo sapiens, C2BBe1;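 further: growth inhibition of C2BBe1 cells, read out through a viability assay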
Description: SANGER: Inhibition of human C2BBe1 cell growth in a cell viability assay.

SH-4 = type: functional, cell-based; details: Homo sapiens;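 further: growth inhibition of SH-4 cells, read out with a cell viability assay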
Description: SANGER: Inhibition of human SH-4 cell growth in a cell viability assay.

KNS-42 = type: functional, cell-based; details: Homo sapiens;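 further: growth inhibition of KNS-42 cells, read out with a cell viability assay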
Description: SANGER: Inhibition of human KNS-42 cell growth in a cell viability assay.

HCC2157 = type: functional, cell-based, Homo sapiens; details: Homo sapiens, HCC2157;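 further: growth inhibition of the cancer cell line, read out as cell viability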
Description: SANGER: Inhibition of human HCC2157 cell growth in a cell viability assay.

MZ7-mel = type: functional, cell-based, Homo sapiens; details: Homo sapiens, MZ7-mel;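 further: growth inhibition of human MZ7-mel cells, measured by a cell viability assay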
Description: SANGER: Inhibition of human MZ7-mel cell growth in a cell viability assay.

SF-126 = type: functional, cell-based, Homo sapiens; details: Homo sapiens, SF-126;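 further: growth inhibition of human SF126 cells, read out with a cell viability assay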
Description: SANGER: Inhibition of human SF126 cell growth in a cell viability assay.

BB65-RCC = type: functional, cell-based, Homo sapiens; details: Homo sapiens, BB65-RCC;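 further: growth inhibition of the cell line, measured with a cell viability assay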
Description: SANGER: Inhibition of human BB65-RCC cell growth in a cell viability assay.

SF-268 = type: functional, cell-based, Homo sapiens; details: Homo sapiens, SF-268;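 further: growth inhibition of SF-268 cells determined with a cell viability assay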
Description: SANGER: Inhibition of human SF268 cell growth in a cell viability assay.

NTERA-2-cl-D1 = type: functional, cell-based, Homo sapiens; details: Homo sapiens, NTERA-2-cl-D1;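 further: inhibition of cell growth, measured with a cell viability assay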
Description: SANGER: Inhibition of human NTERA-S-cl-D1 cell growth in a cell viability assay.

LU-134-A = type: functional, cell-based, Homo sapiens; details: Homo sapiens, LU-134-A
Description: SANGER: Inhibition of human LU-134-A cell growth in a cell viability assay.

TGW = type: functional, cell-based, Homo sapiens; details: Homo sapiens, TGW;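 further: growth inhibition of human TGW cells, read out with a cell viability assay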
Description: SANGER: Inhibition of human TGW cell growth in a cell viability assay.

SNB-75 = type: functional, cell-based, Homo sapiens; details: Homo sapiens, SNB-75;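 further: cell viability assay measuring growth inhibition of human SNB-75 cells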
Description: SANGER: Inhibition of human SNB75 cell growth in a cell viability assay.

KS-1 = type: functional, cell-based; details: Homo sapiens;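 further: growth inhibition of KS-1 cells, read out with a cell viability assay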
Description: SANGER: Inhibition of human KS-1 cell growth in a cell viability assay.

ETK-1 = type: functional, cell-based, Homo sapiens; details: Homo sapiens, ETK-1;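 further: growth inhibition of human ETK-1 cells, read out with a cell viability assay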
Description: SANGER: Inhibition of human ETK-1 cell growth in a cell viability assay.

LB2518-MEL = type: functional, cell-based; details: Homo sapiens;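 further: growth inhibition of human LB2518-MEL cells, measured with a cell viability assay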
Description: SANGER: Inhibition of human LB2518-MEL cell growth in a cell viability assay.

SF-539 = type: functional, cell-based, Homo sapiens; details: Homo sapiens, SF-539;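 further: Read-out is a cell viability assay, with IC50 reflecting inhibition of cell growth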
Description: SANGER: Inhibition of human SF539 cell growth in a cell viability assay.

LS-123 = type: functional, cell-based, Homo sapiens; details: Homo sapiens, LS-123
Description: SANGER: Inhibition of human LS-123 cell growth in a cell viability assay.

CGTH-W-1 = type: functional, cell-based, Homo sapiens; details: Homo sapiens, CGTH-W-1;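 further: growth inhibition of human CGTH-W-1 cells measured by cell viability assay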
Description: SANGER: Inhibition of human CGTH-W-1 cell growth in a cell viability assay.

LNCaP-Clone-FGC = type: functional, cell-based, Homo sapiens; details: Homo sapiens, LNCaP-Clone-FGC
Description: SANGER: Inhibition of human LNCaP-Clone-FGC cell growth in a cell viability assay.

NCI-H209 = type: functional, cell-based, Homo sapiens; details: Homo sapiens, NCI-H209;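 further: growth inhibition of human NCI-H209 cells, measured by a cell viability assay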
Description: SANGER: Inhibition of human NCI-H209 cell growth in a cell viability assay.

SK-MEL-1 = type: functional, cell-based, Homo sapiens; details: Homo sapiens, SK-MEL-1;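 further: growth inhibition of human SK-MEL-1 cells, read out by a cell viability assay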
Description: SANGER: Inhibition of human SK-MEL-1 cell growth in a cell viability assay.

KARPAS-45 = type: functional, cell-based, Homo sapiens; details: Homo sapiens, KARPAS-45;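 further: inhibition of cell line growth, read out through a viability assay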
Description: SANGER: Inhibition of human KARPAS-45 cell growth in a cell viability assay.

D-263MG = type: functional, cell-based, Homo sapiens; details: Homo sapiens, D-263MG
Description: SANGER: Inhibition of human D-263MG cell growth in a cell viability assay.

RPMI-8866 = type: functional, cell-based, Homo sapiens; details: Homo sapiens, RPMI-8866
Description: SANGER: Inhibition of human RPMI-8866 cell growth in a cell viability assay.

NC(=O)c1cccc(-c2cc(Nc3ccc(OC(F)(F)F)cc3)ncn2)c1
IC50 (HH): > 1280 nM
IC50 (A101D): > 1280 nM
IC50 (NCI-H1355): > 1280 nM
IC50 (TGBC24TKB): > 1280 nM
IC50 (ES1): > 1280 nM
IC50 (DMS-114): > 1280 nM
IC50 (MZ1-PC): > 1280 nM
IC50 (8-MG-BA): > 1280 nM
IC50 (VA-ES-BJ): > 1280 nM
IC50 (HCE-4): > 1280 nM
IC50 (TE-12): > 1280 nM
IC50 (KARPAS-299): > 1280 nM
IC50 (SCC-15): > 1280 nM
IC50 (LOX IMVI): > 1280 nM
IC50 (ES8): > 1280 nM
IC50 (GOTO): > 1280 nM
IC50 (Ramos-2G6-4C10): > 1280 nM
IC50 (COLO-800): > 1280 nM
IC50 (GB-1): > 1280 nM
IC50 (IA-LM): > 1280 nM
IC50 (A498): > 1280 nM
IC50 (Mo): > 1280 nM
IC50 (MLMA): > 1280 nM
IC50 (MFM-223): > 1280 nM
IC50 (HOP-62): > 1280 nM
IC50 (GI-1): > 1280 nM
IC50 (ES6): > 1280 nM
IC50 (C2BBe1): > 1280 nM
IC50 (SH-4): > 1280 nM
IC50 (KNS-42): > 1280 nM
IC50 (HCC2157): > 1280 nM
IC50 (MZ7-mel): > 1280 nM
IC50 (SF-126): > 1280 nM
IC50 (BB65-RCC): > 1280 nM
IC50 (SF-268): > 1280 nM
IC50 (NTERA-2-cl-D1): > 1280 nM
IC50 (LU-134-A): > 1280 nM
IC50 (TGW): > 1280 nM
IC50 (SNB-75): > 1280 nM
IC50 (KS-1): > 1280 nM
IC50 (ETK-1): > 1280 nM
IC50 (LB2518-MEL): > 1280 nM
IC50 (SF-539): > 1280 nM
IC50 (LS-123): > 1280 nM
IC50 (CGTH-W-1): > 1280 nM
IC50 (LNCaP-Clone-FGC): > 1280 nM
IC50 (NCI-H209): > 1280 nM
IC50 (SK-MEL-1): > 1280 nM
IC50 (KARPAS-45): > 1280 nM
IC50 (D-263MG): > 1280 nM
IC50 (RPMI-8866): > 1280 nM

COc1cc(N2CCC(N3CCN(C)CC3)CC2)ccc1Nc1ncc(Cl)c(Nc2ccccc2S(=O)(=O)C(C)C)n1 [TAE-684]
IC50 (HH): > 2000 nM
IC50 (A101D): 1570 nM
IC50 (NCI-H1355): 552 nM
IC50 (TGBC24TKB): 302 nM
IC50 (ES1): > 2000 nM
IC50 (DMS-114): > 2000 nM
IC50 (MZ1-PC): 178 nM
IC50 (8-MG-BA): > 2000 nM
IC50 (VA-ES-BJ): > 2000 nM
IC50 (HCE-4): 1610 nM
IC50 (TE-12): 533 nM
IC50 (KARPAS-299): 23.8 nM
IC50 (SCC-15): > 2000 nM
IC50 (LOX IMVI): > 2000 nM
IC50 (ES8): 750 nM
IC50 (GOTO): > 2000 nM
IC50 (Ramos-2G6-4C10): > 2000 nM
IC50 (COLO-800): 767 nM
IC50 (GB-1): 389 nM
IC50 (IA-LM): > 2000 nM
IC50 (A498): > 2000 nM
IC50 (Mo): > 2000 nM
IC50 (MLMA): > 2000 nM
IC50 (MFM-223): > 2000 nM
IC50 (HOP-62): 650 nM
IC50 (GI-1): 1100 nM
IC50 (ES6): 776 nM
IC50 (C2BBe1): 1290 nM
IC50 (SH-4): > 2000 nM
IC50 (KNS-42): > 2000 nM
IC50 (HCC2157): 1470 nM
IC50 (MZ7-mel): > 2000 nM
IC50 (SF-126): 1120 nM
IC50 (BB65-RCC): > 2000 nM
IC50 (SF-268): 840 nM
IC50 (NTERA-2-cl-D1): 334 nM
IC50 (LU-134-A): 839 nM
IC50 (TGW): 859 nM
IC50 (SNB-75): > 2000 nM
IC50 (KS-1): 193 nM
IC50 (ETK-1): 1340 nM
IC50 (LB2518-MEL): > 2000 nM
IC50 (SF-539): < 7.81 nM
IC50 (LS-123): 1520 nM
IC50 (CGTH-W-1): > 2000 nM
IC50 (LNCaP-Clone-FGC): > 2000 nM
IC50 (NCI-H209): > 2000 nM
IC50 (SK-MEL-1): > 2000 nM
IC50 (KARPAS-45): 843 nM
IC50 (D-263MG): > 2000 nM
IC50 (RPMI-8866): > 2000 nM
